Reference: patent US11192900B2, “Substituted 1,6-dihydropyridinones and 1,2-dihydroisoquinolinones as bet inhibitors” (NUVATION BIO INC., priority 2018, dated 2021)
Read-outs that look alike come from different tables or passages of the source.

Experiments:
HEL = test: Cell viability assay (XTT); format: cell-based; conditions: Homo sapiens, up to 72 hr
Procedure: (§1) A panel of BET-sensitive and insensitive cell lines were profiled for effect on cell viability using compound 3. Cells were cultured in the presence of inhibitors at various concentrations for up to 72 hr. For cell viability assays as previously described (Guo Y, et al. 2012. J Hematol Oncol 5:72; Chen Y, et al. 2016. Oncogene 35:2971-8), 0.08 mg/ml XTT (2,3-bis-(2-methoxy-4-nitro-5-sulfophenyl)-2H-tetrazolium-5-carboxanilide) and 8 μM phenazine methyl sulfate (PMS) were added to the cells at the end of the test compound or vehicle treatment duration, and absorbance at 450 nm was measured after 3 hr incubation at 37° C. Assays were performed in triplicates. IC50 values were estimated using a non-linear mixed effect model fitting a sigmoid curve to the experimental dose response data (Vis D J, et al. 2016. Pharmacogenomics 17(7):691-700).

Jurkat = test: Cell viability assay (XTT); format: cell-based; conditions: Homo sapiens, up to 72 hr
Procedure: as §1

K562 = test: Cell viability assay (XTT); format: cell-based; conditions: Homo sapiens, up to 72 hr
Procedure: as §1

MEG-01 = test: Cell viability assay (XTT); format: cell-based; conditions: Homo sapiens; MEG-01, XTT, up to 72 hr
Procedure: as §1

MV-4-11 = test: Cell viability assay (XTT); format: cell-based; conditions: Homo sapiens, MV4-11; MV-4-11, XTT, up to 72 hr
Procedure: as §1

Molt-4 = test: Cell viability assay (XTT); format: cell-based; conditions: Homo sapiens; Molt-4, XTT, up to 72 hr
Procedure: as §1

SET-2 = test: Cell viability assay (XTT); format: cell-based; conditions: Homo sapiens; SET-2, XTT, up to 72 hr
Procedure: as §1

U2973 = test: Cell viability assay (XTT); format: cell-based; conditions: Homo sapiens, U-2973, up to 72 hr
Procedure: as §1

KG-1a = test: Cell viability in AML and DLBCL cell lines (Cell Titer-Glo); format: cell-based; conditions: Homo sapiens, 72 hr
Procedure: (§2) A panel of AML and DLBCL cell lines was profiled for effects of compound 3 on cell viability. Cells were seeded at a count of 3000-8000 cells per well/40 μl in a 384-well plate and incubated at 37° C., 5% CO2 overnight. Cells were treated with test compounds at 10 concentrations within a desired concentration range (e.g. 0.5 nM-10 μM) for generation of dose response curves by preparing serial dilutions of the test compound in DMSO which were further diluted with culture medium and then added in a volume of […] to each well. Cells were cultured in the presence of inhibitors at various concentrations for 72 hr. The assay was terminated by addition of […] Cell Titer-Glo reagent (Promega, Madison, Wis.) to each well. Contents were mixed, the plate was incubated for 10 min at room temperature and luminescence was measured. The IC50 value of each test compound was calculated with XLFit curve fitting software.

KOPN-8 = test: as above; format: cell-based; conditions: Homo sapiens; KOPN-8, Cell Titer-Glo, 72 hr
Procedure: as §2

NOMO-1 = test: as above; format: cell-based; conditions: Homo sapiens; NOMO-1, Cell Titer-Glo, 72 hr
Procedure: as §2

OCI-AML3 = test: as above; format: cell-based; conditions: Homo sapiens, OCI-AML-3, 72 hr
Procedure: as §2

RS4; 11 = test: as above; format: cell-based; conditions: Homo sapiens, 11, Cell Titer-Glo, 72 hr
Procedure: as §2

SU-DHL4 = test: as above; format: cell-based; conditions: Homo sapiens, SU-DHL-4, 72 hr
Procedure: as §2

SU-DHL6 = test: as above; format: cell-based; conditions: Homo sapiens, SU-DHL-6, 72 hr
Procedure: as §2

WSU-DLCL2 = test: as above; format: cell-based; conditions: Homo sapiens, WSUDLCL2, 72 hr
Procedure: as §2

[1] = system: IEC-6 rat intestinal epithelial cell line; test: IEC-6 cell viability, Protocol B (toxicity to non-cancerous cells); format: cell-based; conditions: Rattus norvegicus; IEC-6, 4000 cells per well, 48 hrs
Procedure: The effects of test compounds were also studied in the IEC-6 rat intestinal epithelial cell line to assess potential toxicity to non-cancerous cells. The cells were harvested during the logarithmic growth period and counted. In Protocol A, cells were seeded at a count of 3000 cells per well/100 μl in a 96-well plate. After seeding, cells were incubated at 37° C., 5% CO2 for 24 hr. Cells were treated with test compounds at 8 concentrations within a desired concentration range (e.g. 5 nM-10 μM) for generation of dose response curves by preparing serial dilutions of the test compound in DMSO which were further diluted with culture medium and then added to each well. The plate was further incubated for another 96 hrs in humidified incubator at 37° C. and 5% CO2. The assay was terminated by addition of resazurin (# R7017, Sigma). The plate was incubated for 4 hr at 37° C., 5% CO2 and fluorescence was measured using excitation and emission wavelengths of 535 and 590 nm, respectively. Cell viability data were plotted using GraphPad Prism (GraphPad Software, Inc., San Diego, Calif.). In addition, a nonlinear regression model with a sigmoidal dose response and variable slope within GraphPad Prism was used to calculate the IC50 value of individual test compounds. Protocol B was the same as Protocol A except that cells were seeded at a count of 4000 cells per well/100 μl in a 96-well plate, and the incubation with test compound was for 48 hrs instead of 96 hrs.

22Rv1 cells = test: 22Rv1 cell proliferation assay with wash-off or mock wash-off; format: cell-based, human; conditions: Homo sapiens
Procedure: A 22Rv1 cell proliferation assay was used to assess durability of test compound effects after transient exposure of test compound to cells. 22Rv1 cells were seeded at 3000 cells per well/100 μl in a 96-well plate and incubated with test compounds at specified dilutions for 2 hr at 37° C. and 5% CO2. Following the incubation, test compound was washed off and replacement culture medium without test compound was added. Wash-off was performed by three PBS washes. The cells were incubated for an additional 96 hr at 37° C. and 5% CO2. In parallel, a mock wash-off was performed with cells that were treated identically except that the replacement culture medium contained test compound. The plate was incubated for 4 hr at 37° C., 5% CO2 and fluorescence was measured using excitation and emission wavelengths of 535 and 590 nm, respectively. Cell viability data were plotted using GraphPad Prism (GraphPad Software, Inc., San Diego, Calif.). In addition, a nonlinear regression model with a sigmoidal dose response and variable slope within GraphPad Prism was used to calculate the IC50 value of individual test compounds.

IC50 (Jurkat): 6000 nM
IC50 (K562): 5000 nM
IC50 (MV-4-11): 100 nM
IC50 (Molt-4): 300 nM
IC50 (OCI-AML3): 50 nM
IC50 (RS4; 11): 128 nM
IC50 (SU-DHL4): 22 nM
IC50 (SU-DHL6): 47 nM
Structure (SMILES): C=CS(=O)(=O)Nc1ccc(Oc2ccc(F)cc2F)c(-c2cc(NC)c(=O)n(C)c2)c1 [Compound 3, N-(4-(2,4-difluorophenoxy)-3-(1-methyl-5-(methylamino)-6-oxo-1,6-dihydropyridin-3-yl)phenyl)ethenesulfonamide]
IC50 (HEL): 400 nM
IC50 (MEG-01): 310 nM
IC50 (SET-2): 90 nM
IC50 (U2973): 240 nM
IC50 (KG-1a): 285 nM
IC50 (KOPN-8): 9 nM
IC50 (NOMO-1): 205 nM
IC50 (WSU-DLCL2): 84 nM
IC50 [1]: 173 nM
IC50 (22Rv1 cells; 22Rv1, 2 hr exposure, three PBS washes, additional 96 hr without compound, read-out: Wash-off IC50): 96 nM
IC50 (22Rv1 cells; 22Rv1, 2 hr, replacement medium with test compound, additional 96 hr, read-out: Mock wash-off IC50): 342 nM
